Results: patent US20220233656A1, “ANTIBACTERIAL COMPOSITION” (NATIONAL UNIVERSITY CORPORATION TOKYO MEDICAL AND DENTAL …, priority 2019, published 2022)

Columns and labels:
[1] = tested on: Pseudomonas aeruginosa (NBRC 13275); test: Confocal laser scanning microscope observation (LIVE/DEAD BacLight); format: cell-based; conditions: final 1,000 μg/mL, 37° C., 2 hours
Method: (§1) As a control, physiological saline (0.9% NaCl solution) was used. To 500 μL of these solutions, 500 μL of Pseudomonas aeruginosa bacterial suspension and Acinetobacter bacterial suspension prepared in the same manner as in Experimental Example 1 above was added, and incubated at 37° C. for 2 hours. Then, 3 μL of LIVE/DEAD BacLight reagent (a mixture of SYTO 9 and propidium iodide (PI), which stain nucleic acids) was added and further incubated for 15 minutes at room temperature. SYTO 9 with green fluorescence labels all bacteria, while PI with red fluorescence permeates only bacteria with damaged plasma membranes, and the presence of both dyes attenuates the fluorescence of SYTO 9.

[2] = tested on: Pseudomonas aeruginosa (NBRC 13275); test: ONPG assay (intracellular membrane permeability test); format: cell-based; conditions: final 200, 2,000 and 5,000 μg/mL
Method: (§2) Intracellular membrane permeability was determined by ONPG assay (o-nitrophenyl-β-D-galactopyranoside (ONPG) assay). When the cell membrane is damaged, intracellular enzymes, including β-galactosidase, leak out of the cell. ONPG is normally colorless, but is hydrolyzed by β-galactosidase to galactose and o-nitrophenol, resulting in an increase in absorbance at 420 nm. The intracellular membrane permeability of bacteria can be determined by measuring the activity of cytosolic β-galactosidase released from the bacteria using ONPG as a substrate.
(§3) Specifically, evaluation on whether substances with absorption at 420 nm were released was performed by measuring the absorption at 420 nm with the spectrophotometer ASV11D. […] As a control, a 0.5% NaCl solution was used. The Pseudomonas aeruginosa bacterial suspension and Acinetobacter bacterial suspension prepared in the same manner as in Experimental Example 1 were resuspended in a 0.5% NaCl solution, and prepared with such a final suspension concentration that the absorbance at 420 nm was 1.2. […] The increase in absorbance at 420 nm (A420nm) was evaluated by performing triplicate measurements.

[3] = tested on: Pseudomonas aeruginosa (NBRC 13275); test: Cell membrane integrity test (absorbance at 260 nm); format: cell-based
Description: (§4) The measurement of absorbance at 260 nm (A260nm) was used to estimate the amount of nucleic acid released from the cytoplasm, thereby evaluating the integrity of the cell membrane. When a bacterial cell membrane is compromised by an antibacterial agent, intracellular components are released into the extracellular space. The measurement of absorbance at 260 nm is used to estimate the amount of DNA and RNA released from the cytoplasm.
(§5) Specifically, evaluation on whether substances with absorption at 260 nm were released from the bacteria was performed by measuring the absorption at 260 nm with ND-1000 manufactured by Thermo Fisher Scientific. […] As a control, a 0.5% NaCl solution was used. The Pseudomonas aeruginosa bacterial suspension and Acinetobacter bacterial suspension prepared in the same manner as in Experimental Example 1 were resuspended in a 0.5% NaCl solution, and prepared with such a final suspension concentration that the absorbance at 420 nm was 0.7. […] At 20 minutes, 40 minutes, 60 minutes, 80 minutes, 100 minutes, and 120 minutes after the start of incubation, each solution was subjected to a 0.22 μm syringe filter to remove bacteria, and the absorbance at 260 nm (A260nm) was measured. The results for absorbance, expressed as the average of triplicate measurements and SEM (standard error of sample mean), are shown in FIGS. 4A and 4B.

Acinetobacter baumannii [4] = test: Transmission electron microscope observation; format: cell-based; conditions: 37° C., 2 hours, complex 1,000 μg/mL, mixture 500 + 500 μg/mL; for morphological changes (TEM): lysozyme alone 500 μg/mL, chitosan alone 500 μg/mL
Method: (§6) As a control, physiological saline (0.9% NaCl solution) was used.
(§7) Then, centrifugation was performed, and the resultant pellets were washed with physiological saline (0.9% NaCl), fixed in a 1.0% buffered osmium tetroxide buffer solution in a 0.1 M phosphate buffered saline for 1 hour, embedded in 2.0% agar, dehydrated with ethanol, and then embedded in Epon 812 (TAAB Laboratories Equipment Ltd.). Ultrathin sections of 70 nm were collected on a copper grid, double-stained with uranyl acetate and lead citrate, and observed with a transmission electron microscope (H-7100) at 75 kV.

[5] = tested on: Pseudomonas aeruginosa (NBRC 13275); test: Transmission electron microscope observation; format: cell-based; conditions: 37° C., 2 hours, complex 1,000 μg/mL, mixture 500 + 500 μg/mL; for morphological changes (TEM): lysozyme alone 500 μg/mL, chitosan alone 500 μg/mL
Method: as §6, §7

[6] = tested on: Acinetobacter baumannii (JCM 6841); test: Growth suppression effect test (Experimental Example 3); format: cell-based; conditions: 2,000 μg/mL in TSB, 37° C., 6 hours, versus control
Method: (§8) As a control, TSB medium without additives was used. The Acinetobacter bacterial suspension or Pseudomonas aeruginosa bacterial suspension was prepared in the same way as in Experimental Example 1 described above. […] After 6 hours, 0.1 mL of each solution was added to a solid medium (Mueller-Hinton medium) and allowed to grow overnight, and then the bacteria count was measured. The bacterial suspensions were tested on each solution 18 times for Pseudomonas aeruginosa (NBRC 13275) and 8 times each for Pseudomonas aeruginosa (PAO1) and Acinetobacter by duplicate (mean of triplicate measurements and SEM (standard error of sample mean)) in independent experiments.

Acinetobacter (JCM 6841) [7] = test: Confocal laser scanning microscope observation (LIVE/DEAD BacLight); format: cell-based, Acinetobacter baumannii; conditions: final 1,000 μg/mL, 37° C., 2 hours
Method: as §1

[8] = tested on: Pseudomonas aeruginosa (NBRC 13275 and PAO 1); test: Drug resistance acquisition test (MIC after repeated subculture); format: cell-based; conditions: after 10 subcultures at ½ MIC in LB medium
Method: (§9) The MIC was defined as the minimum concentration of the reagent without visual turbidity observed after 18 hours and 24 hours of evaluation. […] The bacteria that were not subcultured was evaluated as a control (CTL in FIGS. 10A and 10B). MIC measurements were repeated 10 times to evaluate the development of drug resistance in these bacteria.

Acinetobacter baumannii [9] = test: as above; format: cell-based; conditions: after 10 subcultures at ½ MIC in LB medium
Method: as §9

Acinetobacter (JCM 6841) [10] = test: ONPG assay (intracellular membrane permeability test); format: cell-based, Acinetobacter baumannii; conditions: for absorbance 420 nm (ONPG), time course: up to 100 minutes
Method: as §2, §3

[11] = tested on: Pseudomonas aeruginosa (NBRC 13275); test: Bacteria-killing test at various concentrations (Experimental Example 2); format: cell-based; conditions: 200 μg/mL, 2,000 μg/mL and 10,000 μg/mL in physiological saline
Method: (§10) As a control, physiological saline (0.9% NaCl solution) was used. The Acinetobacter bacterial suspension or Pseudomonas aeruginosa bacterial suspension was prepared as follows. Pseudomonas aeruginosa (NBRC 13275 or PAO1) or Acinetobacter baumannii (JCM 6841) was grown overnight at 37° C. in trypsin soy broth (TSB), centrifuged during the logarithmic growth phase, and collected, and the bacteria were resuspended in physiological saline (0.9% NaCl), with such a final suspension concentration that the absorbance was 1.0 (10^8 to 10^9 CFU/mL) at 600 nm.
(§11) At 0 minutes, 30 minutes, 60 minutes, and 120 minutes after the start of incubation, 0.1 mL of each solution was added to a solid medium (Mueller-Hinton medium) for overnight growth, and then the bacteria count was measured. The test of the bacterial suspensions against each solution was performed three times and measured.

[12] = tested on: Pseudomonas aeruginosa (NBRC 13275); test: Growth suppression effect test at various concentrations (Experimental Example 4); format: cell-based; conditions: 2,000 μg/mL, 5,000 μg/mL and 10,000 μg/mL in TSB, 6 hours
Method: as §8

[13] = tested on: Acinetobacter baumannii (JCM 6841); test: Bacteria-killing test (Experimental Example 1); format: cell-based; conditions: 2,000 μg/mL in physiological saline, 37° C., at 60 minutes and 120 minutes, versus control
Method: The bacteria-killing property of the lysozyme-chitosan complex (LYZOX (registered trademark)) against Acinetobacter and the like was measured in comparison with a mixture of lysozyme and chitosan and the like.
as §10, §11

Acinetobacter (JCM 6841) [14] = test: Cell membrane integrity test (absorbance at 260 nm); format: cell-based, Acinetobacter baumannii
Description: as §4, §5

[15] = final 2,000, 5,000 and 10,000 μg/mL, 0.5% NaCl, 37° C.
[16] = various concentrations, 20 to 120 minutes

Method for rabbit erythrocytes: Each resulting mixed solution was incubated at 37° C. for 1 hour, and centrifuged at 1500 rpm for 10 minutes, and the supernatant was collected. […] Each absorbance (OD) was measured at 545 nm to calculate the hemolytic rate by using the following formula. The absorbance value at 545 nm was expressed as the average and SEM (standard error of the sample mean) of triplicate measurements.

Substance: lysozyme-chitosan complex: Commercial LYZOX powder: chicken-derived lysozyme (about 14,000 Da) and about 5,000 Da water-soluble chitosan, mass ratio 1:1, bound by Maillard reaction
- aggregation of bacterial cells (CLSM) [1]: aggregated to form clusters
- bacterial cells with damaged membranes (red fluorescence, CLSM) [1]: more bacterial cells with damaged membranes than in the corresponding control
- absorbance 420 nm (ONPG), dependence on concentration [2]: increased in a concentration-dependent manner
- absorbance 260 nm, dependence on concentration [3, 15]: increased in a concentration-dependent manner
- absorbance 260 nm, time course [3, 16]: increased rapidly in the first 20 minutes, and then the rate of increase decreased until 120 minutes
- morphological changes (TEM) (Acinetobacter baumannii [4]): spherical cells with outer membrane vesicles
- cell walls and intracellular contents (TEM) (Acinetobacter baumannii [4]): bacterial cell walls were disrupted and the intracellular contents were released from the cells
- morphological changes (TEM) [5]: spherical cells with outer membrane vesicles
- cell walls and intracellular contents (TEM) [5]: bacterial cell walls were disrupted and the intracellular contents were released from the cells
- bacteria count (growth suppression) [6]: significantly reduced the bacteria count than the control
- aggregation of bacterial cells (CLSM) (Acinetobacter (JCM 6841) [7]): less aggregation of bacterial cells than Pseudomonas aeruginosa
- bacterial cells with damaged membranes (red fluorescence, CLSM) (Acinetobacter (JCM 6841) [7]): more bacterial cells with damaged membranes than in the corresponding control
- hemolysis of rabbit erythrocytes (rabbit erythrocytes): almost did not hemolyze
- acquisition of drug resistance (change of MIC) [8]: did not acquire resistance
- acquisition of drug resistance (change of MIC) (Acinetobacter baumannii [9]): did not acquire resistance
- absorbance 420 nm (ONPG), time course (Acinetobacter (JCM 6841) [10]; 200 μg/mL): increased in the first 10 minutes and remained constant thereafter
- absorbance 420 nm (ONPG), time course (Acinetobacter (JCM 6841) [10]; 2,000 μg/mL and 5,000 μg/mL): increased rapidly at first and then slowly until 100 minutes
- effect on the inner membrane (Acinetobacter (JCM 6841) [10]; ONPG assay): disrupt the inner membrane of Acinetobacter
- absorbance 420 nm (ONPG), dependence on concentration (Acinetobacter (JCM 6841) [10]; final 200, 2,000 and 5,000 μg/mL): increased in a concentration-dependent manner
- bacteria-killing activity (bacteria count) [11]: concentration-dependent bacteria-killing activity
- growth suppression effect (bacteria count) [12]: concentration-dependent growth suppression effect
- bacteria count (bacteria-killing) [13]: significantly reduced the bacteria count than the control
- absorbance 260 nm, dependence on concentration (Acinetobacter (JCM 6841) [14]; [15]): increased in a concentration-dependent manner
- absorbance 260 nm compared to the control (Acinetobacter (JCM 6841) [14]; final 2,000, 5,000 and 10,000 μg/mL, 20 to 120 minutes): higher absorbance in Acinetobacter compared to the control
- absorbance 260 nm, time course (Acinetobacter (JCM 6841) [14]; [16]): increased rapidly in the first 20 minutes, and then the rate of increase decreased until 120 minutes

Substance: lysozyme alone: lysozyme (manufactured by Nippon Biocon Ltd.), enzyme that hydrolyzes mucopolysaccharides [reference compound]
- morphological changes (TEM) (Acinetobacter baumannii [4]): formed spheroplasts
- morphological changes (TEM) [5]: formed spheroplasts

Substance: poly-β1→4-glucosamine [chitosan alone, reference compound]
- morphological changes (TEM) (Acinetobacter baumannii [4]): formed numerous vesicles on their surfaces
- morphological changes (TEM) [5]: formed numerous vesicles on their surfaces
